Experimental data: PMC13347698 (Analytical Chemistry, 2026)
Where “and” joins values, the source holds several entries; their conditions need not be identical. Identical values can stand only once.

Tests used:
[1] = molecular target: T1, native SARS-CoV-2 3CL^pro (Severe acute respiratory syndrome coronavirus 2, UniProt P0DTD1); experiment: biochemical; format: biochemical
wild-type 3CL^pro = wild-type 3CL^pro (Severe acute respiratory syndrome coronavirus 2, UniProt P0DTD1); experiment: biochemical; format: binding, SARS-CoV-2; details: K D (wt)
SARS-CoV-2 3CL^pro = details: cited from earlier work
[2] = molecular target: T1, native SARS-CoV-2 3CL^pro; format: biochemical
SARS-CoV 3CL^pro = details: cited from earlier work

SMILES | Ki [1] [µM] | Kd (wild-type 3CL^pro) | IC50 (SARS-CoV-2 3CL^pro) | binding kinetics (fast or slow-binding) [2] | covalent or noncovalent inhibition [2] | reduction of reaction rate vi with respect to v0 [2] | reduction of thermal power minimum with respect to the noninhibited reaction [2] | tight or nontight binding [2] | inhibition mode [1] | α parameter [1] | IC50 (SARS-CoV 3CL^pro) [µM]
O=C(Nc1ccc(N(Cc2ccsc2)C(=O)Cn2nnc3ccccc32)cc1)C1CC1 [ML300] | 6.2 ± 0.4 | 7.5 µM and 3.6 µM | low micromolar range | – | – | – | – | – | – | – | –
CC(C)(C)c1ccc(N(C(=O)c2c[nH]cn2)[C@@H](C(=O)NC2CCCCC2)c2cccnc2)cc1 [X77] | – | – | – | fast | noncovalent | ca. 70% | ca. 40% | nontight | predominantly competitive | 16 ± 3 | 3.4
